# Test results published in patent US20050282818A1, “Ubiquitin ligase inhibitors” (Rigel Pharmaceuticals, Inc., priority 2004, published 2005).
# Legend:
# TRAF6/Uev1A/Ubc13 = molecular target: T1, TRAF6/Uev1A/Ubc13 (Homo sapiens, UniProt Q9Y4K3); assay: TRAF6/Uev1A/Ubc13 plate-based ubiquitin ligase assay; assay type: biochemical
# T1 sequence (Q9Y4K3 1-522): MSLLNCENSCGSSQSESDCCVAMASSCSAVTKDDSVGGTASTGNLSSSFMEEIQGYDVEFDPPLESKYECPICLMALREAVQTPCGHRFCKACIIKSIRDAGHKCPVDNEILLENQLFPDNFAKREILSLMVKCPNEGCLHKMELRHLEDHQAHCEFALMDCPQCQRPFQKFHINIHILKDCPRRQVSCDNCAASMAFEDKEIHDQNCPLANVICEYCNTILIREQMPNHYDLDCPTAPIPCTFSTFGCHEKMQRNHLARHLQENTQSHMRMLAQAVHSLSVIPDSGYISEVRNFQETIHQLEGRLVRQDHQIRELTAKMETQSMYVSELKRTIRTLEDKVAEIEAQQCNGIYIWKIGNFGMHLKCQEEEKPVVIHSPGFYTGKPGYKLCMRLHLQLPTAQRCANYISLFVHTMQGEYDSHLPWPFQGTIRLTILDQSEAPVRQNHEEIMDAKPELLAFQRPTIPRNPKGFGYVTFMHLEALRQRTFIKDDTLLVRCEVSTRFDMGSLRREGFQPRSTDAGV
# Procedure, shortened: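 Ligase activity was read as luminescence from anti-Flag/HRP detection of Flag-ubiquitin bound to casein-blocked Ni-plates alongside His-ubiquitin after a 1 h room-temperature reaction. Buffer: 62.5 mM Tris pH 7.5, 6.25 mM MgCl2, 1.0 mM DTT, 2 μM ATP; E1, Uev1a/Ubc13 and TRAF6 added last to start. IC50s derived across compound concentrations.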
# [1] = system: ICAM-1 expression in A549 cells; assay: ICAM assay (IL-1 induced ICAM-1/CD54 expression in A549 cells); assay type: cell-based, human; conditions: Homo sapiens, A549, ICAM assay
# Procedure, shortened: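 Luminescent immunostaining (anti-CD54, then anti-mouse IgG, 1 h) quantifies ICAM-1 on A549 cells induced 4 h at 37° C by IL-1 (4 μl of 25 ng/ml added). Compound is added 1 h before the cytokine to cells plated overnight at 10,000 per well.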
# APC11/APC2 = APC11/APC2 (Homo sapiens, UniProt Q9NYG5+Q9UJX6); assay: APC-11/APC-2 ligase assay (APC auto ubiquitination); assay type: biochemical; conditions: APC assay
# Procedure, shortened: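 His-tagged APC was captured on nickel plates with human E1 (5 ng/well), UbcH5c (20 ng/well), APC (100 ng/well) and Flag-ubiquitin (100 ng/well) in a Tris pH 7.6 reaction buffer containing 2.5 mM ATP, for 1 hour at room temperature. Read-out was anti-Flag/HRP chemiluminescence. IC50 was set against a DMSO control, typically from 6 or 8 concentrations.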
# Chain of APC11/APC2 (Q9NYG5 whole entry): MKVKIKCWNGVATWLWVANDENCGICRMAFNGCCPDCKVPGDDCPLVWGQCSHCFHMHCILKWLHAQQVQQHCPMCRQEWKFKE
# Chain of APC11/APC2 (Q9UJX6 whole entry): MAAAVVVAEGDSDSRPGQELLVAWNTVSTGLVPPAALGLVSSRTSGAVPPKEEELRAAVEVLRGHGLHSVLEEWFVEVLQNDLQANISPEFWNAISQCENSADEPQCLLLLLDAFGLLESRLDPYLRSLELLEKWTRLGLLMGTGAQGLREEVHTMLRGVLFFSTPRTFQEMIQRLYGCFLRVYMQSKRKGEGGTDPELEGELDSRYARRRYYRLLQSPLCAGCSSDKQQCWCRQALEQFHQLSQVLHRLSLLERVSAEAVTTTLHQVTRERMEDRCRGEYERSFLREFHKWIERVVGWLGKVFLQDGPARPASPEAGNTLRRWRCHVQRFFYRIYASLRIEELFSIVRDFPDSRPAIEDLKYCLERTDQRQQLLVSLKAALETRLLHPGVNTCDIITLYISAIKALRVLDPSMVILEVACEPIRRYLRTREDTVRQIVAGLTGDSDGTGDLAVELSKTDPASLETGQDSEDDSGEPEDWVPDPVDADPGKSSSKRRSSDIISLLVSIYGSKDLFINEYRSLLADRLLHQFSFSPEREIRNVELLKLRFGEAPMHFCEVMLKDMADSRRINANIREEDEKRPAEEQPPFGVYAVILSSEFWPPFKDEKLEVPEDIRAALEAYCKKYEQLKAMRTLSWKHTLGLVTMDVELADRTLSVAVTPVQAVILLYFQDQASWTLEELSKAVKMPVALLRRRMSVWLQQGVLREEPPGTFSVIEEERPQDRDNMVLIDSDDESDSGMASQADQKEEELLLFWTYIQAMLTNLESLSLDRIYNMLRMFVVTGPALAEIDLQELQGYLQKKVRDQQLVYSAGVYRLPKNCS
Compound,IC50 (TRAF6/Uev1A/Ubc13) [µM],IC50 [1] [µM],IC50 (APC11/APC2) [µM]
"O=[N+]([O-])c1ccc(Nc2cccc(F)c2F)c2nonc12 [compound 397, N-(2,3-difluorophenyl)-7-nitro-2,1,3-benzoxadiazol-4-amine]",≥ 20,≥ 20,≥ 20
"Nc1ccc(Nc2ccc3[nH]ncc3c2)c2nonc12 [compound 398, N-(1H-indazol-5-yl)-2,1,3-benzoxadiazole-4,7-diamine]",≥ 20,1 to 20,≥ 20
"O=C(O)c1ccc(NS(=O)(=O)c2ccc(Cl)c3nonc23)cc1 [compound 399, 4-(7-chloro-2,1,3-benzoxadiazole-4-sulfonamido)benzoic acid]",≥ 20,≥ 20,≥ 20
"O=[N+]([O-])c1ccc(Nc2ccccc2F)c2nonc12 [compound 401, N-(2-fluorophenyl)-7-nitro-2,1,3-benzoxadiazol-4-amine]",≥ 20,≥ 20,≥ 20
"O=S(=O)(Nc1cccc(F)c1F)c1ccc(Sc2ccc(O)cc2)c2nonc12 [compound 402, N-(2,3-difluorophenyl)-7-([4-hydroxyphenyl]thio)-2,1,3-benzoxadiazole-4-sulfonamide]",≥ 20,≥ 20,1 to 20
"COc1ccccc1C(=O)Nc1ccc(Nc2cccc(F)c2F)c2nonc12 [compound 403, N-(7-[{2,3-difluorophenyl}amino]-2,1,3-benzoxadiazol-4-yl)-2-methoxybenzamide]",≥ 20,≥ 20,≥ 20
"COc1ccccc1Nc1ccc(S(=O)(=O)Nc2ccccc2F)c2nonc12 [compound 404, N-(2-fluorophenyl)-7-([2-methoxyphenyl]amino)-2,1,3-benzoxadiazole-4-sulfonamide]",≥ 20,≥ 20,≥ 20
"Fc1cc2nonc2c(N2CCOCC2)c1F [compound 405, 5,6-difluoro-4-(morpholin-4-yl)-2,1,3-benzoxadiazole]",≥ 20,≥ 20,≥ 20
"Fc1c(N2CCOCC2)cc2nonc2c1F [compound 406, 4,5-difluoro-6-(morpholin-4-yl)-2,1,3-benzoxadiazole]",≥ 20,≥ 20,≥ 20
"O=S(=O)(Nc1cccc2ccccc12)c1ccc(Sc2cccc3cccnc23)c2nonc12 [compound 407, N-(naphthalen-1-yl)-7-(quinolin-8-ylthio)-2,1,3-benzoxadiazole-4-sulfonamide]",1 to 20,1 to 20,1 to 20
"COc1cccc(Nc2ccc3nonc3c2S(=O)(=O)Nc2cccc(OC)c2OC)c1OC [compound 408, N-(2,3-dimethoxyphenyl)-5-([2,3-dimethoxyphenyl]amino)-2,1,3-benzoxadiazole-4-sulfonamide]",≥ 20,1 to 20,≥ 20
"COc1cccc(NS(=O)(=O)c2c(Cl)ccc3nonc23)c1OC [compound 409, 5-chloro-N-(2,3-dimethoxyphenyl)-2,1,3-benzoxadiazole-4-sulfonamide]",≥ 20,1 to 20,≥ 20
"COc1cccc(NS(=O)(=O)c2ccc(Cl)c3nonc23)c1OC [compound 410, 7-chloro-N-(2,3-dimethoxyphenyl)-2,1,3-benzoxadiazole-4-sulfonamide]",≥ 20,1 to 20,≥ 20
"O=S(=O)(c1c(Cl)cc(Cl)c2nonc12)N1CCOCC1 [compound 411, 5,7-dichloro-4-{(morpholin-4-yl)sulfonyl}-2,1,3-benzoxadiazole]",1 to 20,1 to 20,≥ 20
"O=S(=O)(c1c(N2CCOCC2)cc(Cl)c2nonc12)N1CCOCC1 [compound 412, 7-chloro-5-(morpholin-4-yl)-4-{(morpholin-4-yl)sulfonyl}-2,1,3-benzoxadiazole]",≥ 20,1 to 20,≥ 20
"COc1cccc(NS(=O)(=O)c2ccc(Sc3cccc4ccccc34)c3nonc23)c1OC [compound 413, N-(2,3-dimethoxyphenyl)-7-(naphthalen-1-ylthio)-2,1,3-benzoxadiazole-4-sulfonamide]",1 to 20,1 to 20,1 to 20

Compound,IC50 (TRAF6/Uev1A/Ubc13) [µM],IC50 [1] [µM],IC50 (APC11/APC2) [µM]
"O=S(=O)(Nc1c(F)cccc1F)c1c(Cl)cc(Cl)c2nonc12 [compound 414, 5,7-dichloro-N-(2,6-difluorophenyl)-2,1,3-benzoxadiazole-4-sulfonamide]",1 to 20,1 to 20,1 to 20
"O=S(=O)(Nc1cccc2ccccc12)c1c(Nc2cccc3ccccc23)cc(Cl)c2nonc12 [compound 415, 7-chloro-N-(naphthalen-1-yl)-5-(naphthalen-1-ylamino)-2,1,3-benzoxadiazole-4-sulfonamide]",1 to 20,1 to 20,1 to 20
"O=S(=O)(Nc1cccc2ccccc12)c1c(Cl)cc(Cl)c2nonc12 [compound 416, 5,7-dichloro-N-(naphthalen-1-yl)-2,1,3-benzoxadiazole-4-sulfonamide]",1 to 20,1 to 20,1 to 20
"O=S(=O)(Nc1cccc2ccccc12)c1c(Cl)cc(Nc2cccc3ccccc23)c2nonc12 [compound 417, 5-chloro-N-(naphthalen-1-yl)-7-(naphthalen-1-ylamino)-2,1,3-benzoxadiazole-4-sulfonamide]",1 to 20,1 to 20,1 to 20
"FC(F)(F)c1cccc(-c2cc(-c3cccc(C(F)(F)F)c3)c3nonc3c2)c1 [compound 418, 4,6-bis(3-[trifluoromethyl]phenyl)-2,1,3-benzoxadiazole]",≥ 20,≥ 20,≥ 20
"Cc1cccc(-c2cc(-c3cccc(C)c3)c3nonc3c2)c1 [compound 419, 4,6-bis(3-methylphenyl)-2,1,3-benzoxadiazole]",≥ 20,≥ 20,≥ 20
"FC(F)(F)c1ccc(-c2cc(-c3ccc(C(F)(F)F)cc3)c3nonc3c2)cc1 [compound 420, 4,6-bis(4-[trifluoromethyl]phenyl)-2,1,3-benzoxadiazole]",≥ 20,≥ 20,≥ 20
"COc1cccc(-c2cc(-c3cccc(OC)c3)c3nonc3c2)c1 [compound 421, 4,6-bis(3-methoxyphenyl)-2,1,3-benzoxadiazole]",≥ 20,≥ 20,≥ 20
"CC(C)(C)c1ccc(-c2cc(-c3ccc(C(C)(C)C)cc3)c3nonc3c2)cc1 [compound 422, 4,6-bis(4-t-butylphenyl)-2,1,3-benzoxadiazole]",≥ 20,≥ 20,≥ 20
"COc1ccccc1-c1cc(-c2ccccc2OC)c2nonc2c1 [compound 423, 4,6-bis(2-methoxyphenyl)-2,1,3-benzoxadiazole]",≥ 20,≥ 20,≥ 20
"O=S(=O)(Nc1ccccc1Br)c1ccc(Cl)c2nonc12 [compound 424, N-(2-bromophenyl)-7-chloro-2,1,3-benzoxadiazole-4-sulfonamide]",≥ 20,≥ 20,≥ 20
"Oc1ccc2c(c1)cc(Sc1cccc3cccnc13)c1nonc12 [compound 425, 4-(quinolin-8-ylthio)naphtho[2,1-c][1,2,5]oxadiazol-7-ol]",≥ 20,≥ 20,≥ 20
"Cc1cc(C)cc(-c2ccc(N)c3nonc23)c1 [compound 426, 7-(3,5-dimethylphenyl)-2,1,3-benzoxadiazol-4-amine]",≥ 20,≥ 20,≥ 20
"O=C(Nc1ccc([N+](=O)[O-])c2nonc12)c1cccc(F)c1F [compound 427, 2,3-difluoro-N-(7-nitro-2,1,3-benzoxadiazol-4-yl)benzamide]",≥ 20,1 to 20,≥ 20
"O=[N+]([O-])c1c(N2CCCCC2)cc(-c2cc(F)cc(F)c2)c2nonc12 [compound 428, 7-(3,5-difluorophenyl)-4-nitro-5-(piperidin-1-yl)-2,1,3-benzoxadiazole]",≥ 20,≥ 20,≥ 20
"O=[N+]([O-])c1c(N2CCCCC2)cc(-c2cccc(C(F)(F)F)c2)c2nonc12 [compound 429, 7-(3-[trifluoromethyl]phenyl)-4-nitro-5-(piperidin-1-yl)-2,1,3-benzoxadiazole]",≥ 20,≥ 20,≥ 20
